This passage reports IC50 results from US7622494B2, “Chemical compounds” (SmithKline Beecham Corporation, priority 2003, dated 2009).

Structures are written as SMILES. Where a name gives a salt, the structure may show the parent alone. Read-outs that look alike come from different tables or passages of the source.

The test deals with episomal HPV-16 DNA in W12-20850 cells. The experiment in a line: W-12 cellular assay (hybrid capture quantification of episomal HPV-16 DNA). In kind it is cell-based, HPV16. The settings on record: read-out: W-12. How it is done:
Compounds of the current invention are believed useful in the treatment and/or prophylaxis of conditions and diseases associated with HPV infection. Activity mediated through HPV was determined using the following W-12 cellular assay.
The W12 cell line used contains HPV16 DNA and was derived from a low-grade cervical dysplasia tissue by Margaret Stanley and subsequently clonally selected by Paul Lambert (University of Wisconsin). One of these clones, W12-20850, contains 1000 copies of episomal HPV16 DNA and was used in the cell-based assay. W12-20850 cells were routinely cultured with a gamma-irradiated (6000 rads) feeder layer of 3T3 cells. Assays, however, were run in the absence of a 3T3 feeder layer. W12-20850 and 3T3 cells were routinely split when they were sub-confluent. W12-20850 were grown in W12 Medium which is constituted of 25% DMEM (Gibco BRL, Cat # 12430-047), 75% F12 Media (Gibco BRL, Cat # 11765-021) and 2.5% FBS. The additives include […] Adenine (Sigma, Cat # A-9795), […] Hydrocortisone (Calbiochem, Cat # 386698); 5.0 mg/ml Bovine Insulin (Sigma, Cat # I-1882), 8.4 ng/ml cholera toxin (Fluka, Cat # 26694) and 10 ng/ml EGF (Invitrogen, Cat # 13247-051). 3T3 cells were grown in DMEM containing 10% FBS. Cell lines were incubated at 37° C., in the presence of 5% CO2.
For the assay, W12-20850 cells were seeded into a 96 well plate-containing compound. Plates were incubated at 37° C. in the presence of 5% CO2, for four days. On the fourth day, cells were lysed and the amount of episomal. HPV-16 DNA was quantified using a non-radioactive hybrid capture technique with HPV-16 specific capture and detection probes. The percent inhibition relative to untreated control cells' was then determined.
The hybrid capture assay is run in a 96 well plate format. Hybridization plates (Nunc Maxisorb Cat # 450320) were coated with a mixture of capture probe and ReactiBind solution for at least 4 hours and then washed with 0.2×SSC, 0.05% Tween20 (SSCT) prior to blocking with […] of 0.2 N NaOH, 1% Igepal, 10 mg/ml hsDNA for 6-8 hours. The hybridization was carried out by mixing 27 μl of lysed cells with 45 μl of denatured detection probe in 6M guanidine isothiocyanate. To prevent evaporation, 50 μl of mineral oil was added to each well. The plate was then heated to 90° C. for 6.5 minutes and the hybridization continued at 42° C. overnight. Assay plates were washed 6 times with SSC/T. Anti-digoxigenin HRP-conjugated Ab (Boehringer Mannheim 1207733, 1:5000) was incubated in the wells for 30 min at room temperature and washed with PBS/0.05% Tween-20. SuperSignal LBA substrate (Pierce Cat # 37070) was added, and chemiluminescence was measured using Wallac 1420 Victor plate reader.

Where [1] appears, read: Human papillomavirus 16, W12-20850, 96 h.
The mark [2] stands for this setting: Human papillomavirus 16, 96 h, W12-20850 cells, four days incubation, episomal HPV-16 DNA by hybrid capture, inhibition relative to untreated control cells.

In the case of `c1ccc(CNC2CCCc3c2[nH]c2ccccc32)cc1` (centres unmarked) [Example 15, N-Benzyl-2,3,4,9-tetrahydrocarbazole-1-amine hydrochloride salt], the IC50 under setting [1] worked out at 6600 nM.
Still for that read-out and setting: as for `COc1ccc(CNC2CCCc3c2[nH]c2ccccc32)cc1` (centres unmarked) [Example 16, N-(4-Methoxybenzyl)-2,3,4,9-tetrahydro-1H-carbazol-1-amine hydrochloride salt], the figure is 1500 nM; as for `c1ccc(CCNC2CCCc3c2[nH]c2ccccc32)cc1` (centres unmarked) [Example 17, N-(2-Phenylethyl)-2,3,4,9-tetrahydro-1H-carbazol-1-amine hydrochloride salt], 7400 nM; as for `C[C@@H](NC1CCCc2c1[nH]c1ccccc21)c1ccccc1` (stereo partly drawn) [Example 18, N-[(1R)-1-Phenylethyl]-2,3,4,9-tetrahydro-1H-carbazol-1-amine hydrochloride salt], 12300 nM.
In the case of `c1ccc2c3c([nH]c2c1)C(NC1CCCCC1)CCC3` (centres unmarked) [Example 19, N-Cyclohexyl-2,3,4,9-tetrahydro-1H-carbazol-1-amine hydrochloride salt], under setting [1], the IC50 stood at 14500 nM.
With `c1ccc2c(c1)CC(NC1CCCc3c1[nH]c1ccccc31)C2` (centres unmarked) [Example 20, N-(2.3-Dihydro-1H-inden-2-yl)-2,3,4,9-tetrahydro-1H-carbazol-1-amine hydrochloride salt], the IC50 under setting [2] was 3300 nM.
For the molecule `CCCNC1CCCc2c1[nH]c1ccccc21` (centres unmarked) [Example 21, N-Propyl-2,3,4,9-tetrahydro-1H-carbazol-1-amine hydrochloride salt], under setting [1], the IC50 came to 40000 nM.
Same read-out and setting: with `COCCNC1CCCc2c1[nH]c1ccccc21` (centres unmarked) [Example 22, N-(2-Methoxyethyl)-2,3,4,9-tetrahydro-1H-carbazol-1-amine hydrochloride salt] the figure was 47000 nM; with `OC[C@H](NC1CCCc2c1[nH]c1ccccc21)c1ccccc1` (stereo partly drawn) [Example 23, (2R)-2-Phenyl-2-(2,3,4,9-tetrahydro-1H-carbazol-1-ylamino)ethanol hydrochloride salt], 30000 nM.
With `C[C@@H](CCc1ccccc1)NC1CCCc2c1[nH]c1ccccc21` (stereo partly drawn) [Example 24, N-[(1S)-1-Methyl-3-Phenylpropyl]-2,3,4,9-tetrahydro-1H-carbazol-1-aminehydrochloride salt], under setting [2], the IC50 was found to be 5300 nM.
For the molecule `c1ccc2c3c([nH]c2c1)C(NCc1ccc2c(c1)OCO2)CCC3` (centres unmarked) [Example 25, N-(1.3-Benzodioxol-5-ylmethyl)-2,3,4,9-tetrahydro-1H-carbazol-1-amine hydrochloride salt], under setting [2], the IC50 is 1500 nM.
Consider `Brc1ccc2[nH]c3c(c2c1)CCCC3NCCc1ccccc1` (centres unmarked) [Example 26, 6-Bromo-N-(2-phenylethyl)-2,3,4,9-tetrahydro-1H-carbazol-1-amine hydrochloride salt], for which, under setting [1], the IC50 is 410 nM.
With `Brc1ccc2[nH]c3c(c2c1)CCC[C@H]3NC1Cc2ccccc2C1` [Example 27, (1R)-6-Bromo-N-(2,3-dihydro-1H-inden-2-yl)-2,3,4,9-tetrahydro-1H-carbazol-1-amine hydrochloride salt], the IC50 under setting [1] was determined as 57 nM.
For `Brc1ccc2[nH]c3c(c2c1)CCC[C@@H]3NC1Cc2ccccc2C1` [Example 28, (1S)-6-Bromo-N-(2.3-dihydro-1H-inden-2-yl)-2,3,4,9-tetrahydro-1H-carbazol-1-amine hydrochloride salt], the IC50 under setting [2] is 3700 nM.
Turning to `Brc1ccc2[nH]c3c(c2c1)CCCC3NCc1ccccc1` (centres unmarked) [Example 29, N-Benzyl-6-bromo-2,3,4,9-tetrahydro-1H-carbazol-1-amine hydrochloride salt], the IC50 under setting [1] was 115 nM.
With `C[C@@H](NC1CCCc2c1[nH]c1ccc(Br)cc21)c1ccccc1` (stereo partly drawn) [Example 30, 6-Bromo-N-[(1R)-1-phenylethyl]-2,3,4,9-tetrahydro-1H-carbazol-1-amine hydrochloride salt], the IC50 under setting [1] is below 200 nM.
With `C[C@@H](N[C@@H]1CCCc2c1[nH]c1ccc(Br)cc21)c1ccccc1` [Example 31, (1R)-6-bromo-N-[(1R)-1-phenylethyl]-2,3,4,9-tetrahydro-1 H-carbazol-1-amine hydrochloride salt], under setting [1], the IC50 was found to be 30 nM.
For `C[C@@H](N[C@H]1CCCc2c1[nH]c1ccc(Br)cc21)c1ccccc1` [Example 32, (1S)-6-Bromo-N-[(1R)-1-Phenylethyl]-2,3,4,9-tetrahydro-1H-carbazol-1-amine hydrochloride salt], the IC50 under setting [1] was determined as 525 nM.
Same read-out and setting: as for `CC(C)(NC1CCCc2c1[nH]c1ccc(Br)cc21)c1ccccc1` (centres unmarked) [Example 33, 6-Bromo-N-(1-methyl-1-phenylethyl)-2,3,4,9-tetrahydro-1H-carbazol-1-amine hydrochloride salt], the figure is 750 nM; as for `C[C@H](NC1CCCc2c1[nH]c1ccc(Br)cc21)c1ccccc1` (stereo partly drawn) [Example 34, 6-Bromo-N-[(1S)-1-phenylethyl]-2,3,4,9-tetrahydro-1H-carbazol-1-amine hydrochloride salt], 290 nM; as for `C[C@H](N[C@H]1CCCc2c1[nH]c1ccc(Br)cc21)c1ccccc1` [Example 35, (1S)-6-Bromo-N-[(1S)-1-phenylethyl]-2,3,4,9-tetrahydro-1H-carbazol-1-amine hydrochloride salt], 3000 nM.
Still for that read-out and setting: with `C[C@H](N[C@@H]1CCCc2c1[nH]c1ccc(Br)cc21)c1ccccc1` [Example 36, (1R)-6-Bromo-N-[(1S)-1-phenylethyl]-2,3,4,9-tetrahydro-1H-carbazol-1-amine hydrochloride salt] the figure was 20 nM; with `CN(CCc1ccccc1)C1CCCc2c1[nH]c1ccc(Br)cc21` (centres unmarked) [Example 37, 6-Bromo-N-methyl-N-(2-phenylethyl)-2,3,4,9-tetrahydro-1H-carbazol-1-amine hydrochloride salt], 3000 nM; with `Cn1c2c(c3cc(Br)ccc31)CCCC2NCCc1ccccc1` (centres unmarked) [Example 38, 6-Bromo-9-methyl-N-(2-phenylethyl)-2,3,4,9-tetrahydro-1H-carbazol-1-amine hydrochloride salt], 27000 nM.
Consider `C[C@@H](CNC1CCCc2c1[nH]c1ccc(Br)cc21)c1ccccc1` (stereo partly drawn) [Example 39, 6-Bromo-N-[(2R)-2-phenylpropyl]-2,3,4,9-tetrahydro-1H-carbazol-1-amine hydrochloride salt], for which, under setting [1], the IC50 worked out at 160 nM.
With `Cc1ccc2[nH]c3c(c2c1)CCCC3NCCc1ccccc1` (centres unmarked) [Example 40, 6-Methyl-N-(2-phenylethyl)-2,3,4,9-tetrahydro-1H-carbazol-1-amine hydrochloride salt], the IC50 under setting [1] came out at 2700 nM.
As to `Cc1ccc2[nH]c3c(c2c1)CCCC3NC1Cc2ccccc2C1` (centres unmarked) [Example 41, N-(2.3-Dihydro-1H-inden-2-yl)-6-methyl-2,3,4,9-tetrahydro-1H-carbazol-1-amine hydrochloride-salt], under setting [2], the IC50 was found to be 400 nM.
As for `Cc1ccc2[nH]c3c(c2c1)CCCC3N[C@H](C)c1ccccc1` (stereo partly drawn) [Example 42, 6-Methyl-N-[(1R)-1-phenylethyl]-2,3,4,9-tetrahydro-1H-carbazol-1-amine hydrochloride salt], the IC50 under setting [1] is 540 nM.
In the case of `Cc1ccc2[nH]c3c(c2c1)CCC[C@H]3N[C@H](C)c1ccccc1` [Example 43, hydrochloride salt], the IC50 under setting [1] was 240 nM.
As to `Cc1ccc2[nH]c3c(c2c1)CCC[C@@H]3N[C@H](C)c1ccccc1` [Example 44, (1S)-6-Methyl-N-[(1R)-1-phenylethyl]-2,3,4,9-tetrahydro-1H-carbazol-1-amine hydrochloride salt], the IC50 under setting [1] is 8400 nM.
In the case of `Cc1ccc2[nH]c3c(c2c1)CCCC3N[C@@H](C)c1ccccc1` (stereo partly drawn) [Example 45, 6-Methyl-N-[(1S)-1-phenylethyl]-2,3,4,9-tetrahydro-1H-carbazol-1-amine hydrochloride salt], the IC50 under setting [1] is 7000 nM.
As for `Cc1ccc2[nH]c3c(c2c1)CCC[C@@H]3N[C@@H](C)c1ccccc1` [Example 46, (1S)-6-Methyl-N-[(1S)-1-phenylethyl]-2,3,4,9-tetrahydro-1H-carbazol-1-amine hydrochloride salt], the IC50 under setting [1] was 8600 nM.
